Source: US20240391948A1, “NOVEL COMPOUND THAT INHIBITS TNF-ALPHA GENERATION AND INFLAMMASOME ACTIVITY AND PREPARATION METHOD THEREFOR” (SHAPERON INC., priority 2021, published 2024)

Experiments:
Assay type in all cases: cell-based
[1] = tested on: U937 cells (human monocytic cell line); experiment: BzATP-induced IL-1β secretion inhibition in PMA-differentiated U937 cells; details: U-937, U937 cells differentiated with PMA, read-out: IL-1β production inhibition grade (IC50)
Experimental: (§1) To evaluate anti-inflammatory efficacy, U937 cells (human monocytic cell line) were differentiated into macrophages using PMA (phorbol 12-myristate 13-acetate) and then induced an inflammatory response with Pam2CSK4 (Pam2CysSerLys4) or BzATP (2′(3′)—O-(4-Benzoylbenzoyl)adenosine 5′-triphosphate), the efficacy of taurine-bile acid derivatives in suppressing inflammatory cytokine (IL-1β, TNF-α) production was measured.
(§2) Using PMA, U937 cells were differentiated into macrophages, and the extent of TNF-α secretion inhibition was measured in an experimental group where taurine-bile acid derivatives was treated, followed by induction of inflammatory response with Pam2CSK4, and in the experimental group in which an inflammatory response was induced with BzATP, the extent to which IL-1β secretion among cytokines was suppressed was measured.
(§3) The ability of taurine-bile acid derivatives to inhibit cytokine production was expressed in terms of IC50 (μM) values. The standards for TNF α inhibition ability are A: less than 0.5, B: 0.5 to less than 1.0, C: 1.0 to less than 2.0, D: 2.0 or more, and the IL-1β inhibition ability grade standards are A: less than 0.05, B: 0.05 to less than 0.10, C: 0.10 or more and less than 0.20, D: 0.20 or more.

[2] = tested on: J774A.1 (Mouse BALB/c monocyte macrophage cell line) cells; experiment: LPS-induced TNF-α secretion inhibition in J774A.1 cells; details: J774.A1, 1 μM compound, graded compared to taurodeoxycholic acid (positive control), read-out: TNF-α production inhibition grade
Experimental: (§4) To evaluate anti-inflammatory efficacy, an inflammatory response was induced in J774A.1 (Mouse BALB/c monocyte macrophage cell line) cells derived from mouse macrophages by LPS (lipopolysaccharide) and LPS+ATP (adenosine triphosphate), and the efficacy of taurine-bile acid derivatives to inhibit the production of inflammatory cytokines (IL-1β, TNF-α) was measured. After treating J774A.1 cells with 1 μM of a taurine-bile acid derivative, the degree to which the secretion of TNF-α among cytokines was suppressed was measured in the experimental group in which an inflammatory response was induced by LPS, and the extent to which IL-1β secretion among cytokines was suppressed was measured in the experimental group in which an inflammatory response was induced with LPS+ATP. The ability of taurine-bile acid derivatives to inhibit cytokine production was graded compared to taurodeoxycholic acid, a positive control. The grading criteria are A: over 100%, B: over 50% and under 100%, C: between 20% and under 50%, and D: under 20%.

[3] = tested on: U937 cells (human monocytic cell line); experiment: Pam2CSK4-induced TNF-α secretion inhibition in PMA-differentiated U937 cells; details: U-937, U937 cells differentiated with PMA, read-out: TNF-α production inhibition grade (IC50)
Experimental: as §1, §2, §3

[4] = tested on: J774A.1 (Mouse BALB/c monocyte macrophage cell line) cells; experiment: LPS+ATP-induced IL-1β secretion inhibition in J774A.1 cells; details: J774.A1, 1 μM compound, graded compared to taurodeoxycholic acid (positive control), read-out: IL-1β production inhibition grade
Experimental: as §4

| Compound | IC50 [1] | inhibition at 1 µM [2] | IC50 [3] | inhibition at 1 µM [4] |
| --- | --- | --- | --- | --- |
| C[C@H](CCC(=O)N1CCC[C@@H]1CS(=O)(=O)O)[C@H]1CC[C@H]2[C@@H]3CC[C@@H]4C[C@H](O)CC[C@]4(C)[C@H]3CC[C@]12C [NC10076] | 50 to 100 nM | < 20% | ≥ 2000 nM | > 100% |
| CC(C)[C@@H](CS(=O)(=O)O)NC(=O)CC[C@@H](C)[C@H]1CC[C@H]2[C@@H]3CC[C@@H]4C[C@H](O)CC[C@]4(C)[C@H]3CC[C@]12C [NC10067] | ≥ 200 nM | < 20% | 1000 to 2000 nM | < 20% |
| C[C@H](CCC(=O)N[C@H](CS(=O)(=O)O)c1ccccc1)[C@H]1CC[C@H]2[C@@H]3CC[C@@H]4C[C@H](O)CC[C@]4(C)[C@H]3CC[C@]12C [NC10074] | 50 to 100 nM | < 20% | < 500 nM | > 100% |
| CC(C)[C@H](CS(=O)(=O)O)NC(=O)CC[C@@H](C)[C@H]1CC[C@H]2[C@@H]3CC[C@@H]4C[C@H](O)CC[C@]4(C)[C@H]3C[C@H](O)[C@]12C [NC10033] | 100 to 200 nM | < 20% | 500 to 1000 nM | 50 to 100% |
| CC[C@H]1[C@@H](O)[C@@H]2[C@H](C[C@H](O)[C@]3(C)[C@@H]([C@H](C)CCC(=O)N4CCC[C@@H](S(=O)(=O)O)C4)CC[C@@H]23)[C@@]2(C)CC[C@@H](O)C[C@@H]12 [NC50010] | 100 to 200 nM | < 20% | ≥ 2000 nM | > 100% |
| C[C@H](CCC(=O)N(CCS(=O)(=O)O)c1ccccc1)[C@H]1CC[C@H]2[C@@H]3CC[C@@H]4CC(=O)CC[C@]4(C)[C@H]3CC[C@]12C [NC30037] | < 50 nM | 20 to 50% | ≥ 2000 nM | > 100% |
| C[C@H](CCC(=O)N(CCS(=O)(=O)O)C1CCOCC1)[C@H]1CC[C@H]2[C@@H]3CC[C@@H]4CC(=O)CC[C@]4(C)[C@H]3CC[C@]12C [NC30008] | ≥ 200 nM | < 20% | 500 to 1000 nM | 50 to 100% |
| C[C@H](CCC(=O)N1CC[C@@H](S(=O)(=O)O)C1)[C@H]1CC[C@H]2[C@@H]3CC[C@@H]4C[C@H](O)CC[C@]4(C)[C@H]3CC[C@]12C [NC10090] | ≥ 200 nM | < 20% | 500 to 1000 nM | < 20% |
| C[C@H](CCC(=O)N1CCC[C@@H](S(=O)(=O)O)C1)[C@H]1CC[C@H]2[C@@H]3CC[C@@H]4C[C@H](O)CC[C@]4(C)[C@H]3CC[C@]12C [NC10061] | 100 to 200 nM | < 20% | 500 to 1000 nM | > 100% |
| CC[C@H]1[C@@H](O)[C@@H]2[C@H](C[C@H](O)[C@]3(C)[C@@H]([C@H](C)CCC(=O)N4CC(S(=O)(=O)O)C4)CC[C@@H]23)[C@@]2(C)CC[C@@H](O)C[C@@H]12 [NC50012] | < 50 nM | < 20% | 1000 to 2000 nM | > 100% |
| C[C@H](CCC(=O)NCCC(=O)O)[C@H]1CC[C@H]2[C@@H]3CC[C@@H]4CC(=O)CC[C@]4(C)[C@H]3CC[C@]12C [NC30002] | 100 to 200 nM | < 20% | 1000 to 2000 nM | 50 to 100% |
| CC(C)N(CCS(=O)(=O)O)C(=O)CC[C@@H](C)[C@H]1CC[C@H]2[C@@H]3[C@H](O)C[C@@H]4C[C@H](O)CC[C@]4(C)[C@H]3C[C@H](O)[C@]12C [NC20007] | < 50 nM | < 20% | 1000 to 2000 nM | > 100% |
| C[C@H](CCC(=O)N(CCO)CCS(=O)(=O)O)[C@H]1CC[C@H]2[C@@H]3[C@H](O)C[C@@H]4C[C@H](O)CC[C@]4(C)[C@H]3C[C@H](O)[C@]12C [NC20006] | < 50 nM | < 20% | 1000 to 2000 nM | > 100% |
| C[C@H](CCC(=O)NC1(CS(=O)(=O)O)CC1)[C@H]1CC[C@H]2[C@@H]3[C@H](O)C[C@@H]4C[C@H](O)CC[C@]4(C)[C@H]3C[C@H](O)[C@]12C [NC20032] | < 50 nM | < 20% | ≥ 2000 nM | 50 to 100% |
| C[C@H](CCC(=O)N(CCS(=O)(=O)O)Cc1ccccc1)[C@H]1CC[C@H]2[C@@H]3CC[C@@H]4C[C@H](O)CC[C@]4(C)[C@H]3C[C@H](O)[C@]12C [NC10022] | 100 to 200 nM | 20 to 50% | 500 to 1000 nM | 50 to 100% |
| CC(C)[C@@H](CS(=O)(=O)O)NC(=O)CC[C@@H](C)[C@H]1CC[C@H]2[C@@H]3CC[C@@H]4CC(=O)CC[C@]4(C)[C@H]3CC[C@]12C [NC30016] | ≥ 200 nM | 20 to 50% | < 500 nM | 20 to 50% |
| C[C@H](CCC(=O)N[C@@H](CS(=O)(=O)O)c1ccccc1)[C@H]1CC[C@H]2[C@@H]3[C@H](O)C[C@@H]4C[C@H](O)CC[C@]4(C)[C@H]3C[C@H](O)[C@]12C [NC20019] | 50 to 100 nM | < 20% | 1000 to 2000 nM | < 20% |
| C[C@H](CCC(=O)N[C@H](Cc1ccccc1)CS(=O)(=O)O)[C@H]1CC[C@H]2[C@@H]3CC[C@@H]4C[C@H](O)CC[C@]4(C)[C@H]3C[C@H](O)[C@]12C [NC10031] | 50 to 100 nM | < 20% | ≥ 2000 nM | < 20% |
| C[C@H](CCC(=O)N[C@@H](CS(=O)(=O)O)c1ccccc1)[C@H]1CC[C@H]2[C@@H]3CC[C@@H]4C[C@H](O)CC[C@]4(C)[C@H]3C[C@H](O)[C@]12C [NC10035] | ≥ 200 nM | < 20% | 500 to 1000 nM | 50 to 100% |
| CC[C@H]1[C@@H](O)[C@@H]2[C@H](CC[C@]3(C)[C@@H]([C@H](C)CCC(=O)N[C@@H](CS(=O)(=O)O)C(C)C)CC[C@@H]23)[C@@]2(C)CC[C@@H](O)C[C@@H]12 [NC40017] | ≥ 200 nM | < 20% | 500 to 1000 nM | 20 to 50% |
| CC(C)N(CCS(=O)(=O)O)C(=O)CC[C@@H](C)[C@H]1CC[C@H]2[C@@H]3CC[C@@H]4C[C@H](O)CC[C@]4(C)[C@H]3CC[C@]12C [NC10058] | < 50 nM | < 20% | ≥ 2000 nM | > 100% |
| C[C@H](CCC(=O)N(CCN(C)C)CCS(=O)(=O)O)[C@H]1CC[C@H]2[C@@H]3[C@H](O)C[C@@H]4C[C@H](O)CC[C@]4(C)[C@H]3C[C@H](O)[C@]12C [NC20035] | 50 to 100 nM | < 20% | 1000 to 2000 nM | < 20% |
| CC[C@H]1[C@@H](O)[C@@H]2[C@H](CC[C@]3(C)[C@@H]([C@H](C)CCC(=O)N[C@H]4CCCC[C@H]4S(=O)(=O)O)CC[C@@H]23)[C@@]2(C)CC[C@@H](O)C[C@@H]12 [NC40027] | ≥ 200 nM | < 20% | ≥ 2000 nM | 50 to 100% |
